Source: patent US20220185822A1, “SELECTIVE LIGANDS OF HUMAN CONSTITUTIVE ANDROSTANE RECEPTOR” (USTAV ORGANICKE CHEMIE A BIOCHEMIE AV CR, V.V.I., priority 2019, published 2022)

Experiments:
HepG2 cells = test: Cytotoxicity, cell viability (MTS) in HepG2; type: cell-based; settings: Homo sapiens, 48-h treatment, no significant effect at 30 μM/L
Experimental: Cell viability in HepG2 and COS-1 cells after a 48 h treatment with test compounds at a concentration from 1 up to 30 μM was determined using the modified formazan-based […] assay. […] Briefly, the cells were treated with the test compounds or vehicle alone (DMSO) for 48 h. At the end of the treatment, 20 μl of MTS reagent was added directly to each culture wells and further cultivated for 1.5 h. Finally, the absorbance of converted formazan was recorded at 490 nm by plate reader (BioTec Synergy 2. Winooski. Vt. USA). Vehicle (DMSO) and TritonX100 (0.9%; v/v) controls of cell viability were set to be 100% and 0%, respectively.

human CYP3A4 = molecular target: T1, human CYP3A4 (Homo sapiens, UniProt P08684); test: Commercial CYP450-Glo inhibition assay, CYP3A4; type: in vitro ADME
T1 construct: purchased Promega V8802
T1 sequence (P08684 whole entry): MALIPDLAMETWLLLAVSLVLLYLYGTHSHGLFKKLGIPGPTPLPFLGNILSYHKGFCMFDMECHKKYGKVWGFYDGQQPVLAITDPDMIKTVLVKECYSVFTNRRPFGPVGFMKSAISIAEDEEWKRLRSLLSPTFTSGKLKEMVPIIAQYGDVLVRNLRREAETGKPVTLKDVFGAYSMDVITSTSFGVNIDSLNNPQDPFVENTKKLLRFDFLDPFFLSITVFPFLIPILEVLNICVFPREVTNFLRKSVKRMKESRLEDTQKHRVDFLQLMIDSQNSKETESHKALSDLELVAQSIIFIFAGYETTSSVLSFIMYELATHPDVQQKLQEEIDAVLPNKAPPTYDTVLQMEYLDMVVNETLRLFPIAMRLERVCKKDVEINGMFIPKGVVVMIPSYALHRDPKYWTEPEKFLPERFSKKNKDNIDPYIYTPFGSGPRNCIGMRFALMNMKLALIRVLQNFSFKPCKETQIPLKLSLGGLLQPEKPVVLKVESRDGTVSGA
Experimental: Genetically modified microsomes with human CYP3A4, CYP2C9, CYP2D6 and CYP1A2 enzymes (CYP450-Glo™ CYP3A4 Assay with Luciferin-IPA (Cat. No. V8802), CYP450-Glo™ CYP1A2 with Luciferin-1A2 (Cat. No. V8772), CYP450-Glo™ CYP2C9 Assay with Luciferin-H (Cat. No. V8792, Promega, Madison, Calif.) and P450-Glo™ CYP2D6 Assay Cat. No. V8891, Promega) were used according to manufacturer's procedures. […] Each point was tested in triplicates and experiments have been repeated three times.

estradion β receptor = molecular target: T2, estradion β receptor (Homo sapiens, UniProt Q92731); test: Luciferase reporter assay with GAL4 construct with LBD, estradion β receptor; type: cell-based; settings: 10 μM/L
T2 construct: luciferase reporter assays with a GAL4 constructs with LBD of tested nuclear receptors; expressed in transfected cells
T2 sequence (Q92731 264-498 limits assumed): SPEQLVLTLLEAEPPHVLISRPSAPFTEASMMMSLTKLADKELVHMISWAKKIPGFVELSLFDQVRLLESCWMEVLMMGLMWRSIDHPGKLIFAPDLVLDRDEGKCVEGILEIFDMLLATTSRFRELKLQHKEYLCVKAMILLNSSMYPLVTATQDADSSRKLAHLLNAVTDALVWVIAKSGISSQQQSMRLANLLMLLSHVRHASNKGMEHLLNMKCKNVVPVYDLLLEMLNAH

## NC(=O)c1cc(Cn2cc(-c3c(-c4ccc(Cl)cc4)nc4cc(F)ccn34)nn2)ccc1Cl [Example 93, 2-Chloro-5-((4-(2-(4-chlorophenyl)-7-fluoroimidazo[1,2-a]pyridin-3-yl)-1H-1,2,3-triazol-1-yl)methyl)benzamide]
HepG2 cells
  IC50: > 30 µM
Human CYP3A4
  IC50: > 10 µM
Estradion β receptor
  activation of estradion β receptor: do not activate
